What was measured:
JAK3 = biological target: T1, JAK3 (Homo sapiens, UniProt P52333); test: Jak Biochemical HTRF Assay (JAK3); conditions: recombinant purified GST-tagged catalytic domain, [ATP] 2.9 μM, values given as range classes
T1 construct: recombinant purified GST-tagged catalytic domain for each enzyme; purchased Invitrogen M4290
In short: (§1)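 GST-tagged recombinant catalytic domain and biotinylated peptide substrate were preincubated with compound for 30 min at room temperature in kinase buffer with 2 mM DTT and 0.05% BSA. ATP then started a 120 min reaction. Phosphopeptide was detected by HTRF (Eu-pY20/streptavidin-Dylight 650, 665/615 nm ratio), and IC50 came from a 4-parameter fit of percent inhibition.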

JAK2 = biological target: T2, JAK2 (Homo sapiens, UniProt O60674); test: Jak Biochemical HTRF Assay (JAK2); conditions: recombinant purified GST-tagged catalytic domain, [ATP] 8.5 μM, values given as range classes
T2 construct: recombinant purified GST-tagged catalytic domain for each enzyme; purchased Invitrogen M4290
T2 sequence (O60674 849-1124 limits assumed): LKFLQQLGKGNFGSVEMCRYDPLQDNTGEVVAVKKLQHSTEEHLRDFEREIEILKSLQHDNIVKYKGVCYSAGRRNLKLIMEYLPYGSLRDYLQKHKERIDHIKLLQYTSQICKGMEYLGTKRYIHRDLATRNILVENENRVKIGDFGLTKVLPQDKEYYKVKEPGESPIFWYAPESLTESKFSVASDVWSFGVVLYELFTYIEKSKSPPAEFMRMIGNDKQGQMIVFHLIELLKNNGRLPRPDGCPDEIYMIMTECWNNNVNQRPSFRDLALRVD
In short: as §1

T1 sequence (P52333 822-1111 limits assumed): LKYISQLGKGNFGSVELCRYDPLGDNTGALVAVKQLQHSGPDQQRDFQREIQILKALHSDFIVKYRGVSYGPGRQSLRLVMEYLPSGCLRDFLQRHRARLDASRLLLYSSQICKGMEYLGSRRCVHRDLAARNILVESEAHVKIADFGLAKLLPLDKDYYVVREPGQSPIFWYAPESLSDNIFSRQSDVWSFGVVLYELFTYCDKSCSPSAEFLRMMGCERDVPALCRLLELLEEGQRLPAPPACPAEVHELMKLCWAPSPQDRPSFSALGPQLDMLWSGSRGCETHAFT

IC50 (JAK3) | IC50 (JAK2) | Compound
≤ 10 nM | ≤ 10 nM | CC(CO)NC(=O)c1cnc2[nH]cc(-c3cncc(N[C@@H](C(=O)NCC(F)(F)F)C(C)C)c3)c2c1 (stereo partly drawn) [Example 3-4, N-(2-hydroxy-1-methylethyl)-3-[5-({(1R)-2-methyl-1-[(2,2,2-trifluoroethyl)carbamoyl]propyl}amino)pyridin-3-yl]-1H-pyrrolo[2,3-b]pyridine-5-carboxamide]
≤ 10 nM | ≤ 10 nM | CC(C)[C@@H](Nc1cncc(-c2c[nH]c3ncc(C(=O)NC4CCOCC4)cc23)c1)C(=O)NCC(F)(F)F [Example 3-5, 3-[5-({(1R)-2-methyl-1-[(2,2,2-trifluoroethyl)carbamoyl]propyl}amino)pyridin-3-yl]-N-(tetrahydro-2H-pyran-4-yl)-1H-pyrrolo[2,3-b]pyridine-5-carboxamide]
≤ 10 nM | 10 to 500 nM | CC(C)[C@@H](Nc1cncc(-c2c[nH]c3ncc(C(=O)N4CCC4)cc23)c1)C(=O)NCC(F)(F)F [Example 3-6, N~2~-{5-[5-(azetidin-1-ylcarbonyl)-1H-pyrrolo[2,3-b]pyridin-3-yl]pyridin-3-yl}-N-(2,2,2-trifluoroethyl)-D-valinamide]
≤ 10 nM | 10 to 500 nM | CC(C)CNC(=O)c1cnc2[nH]cc(-c3cncc(N[C@@H](C(=O)NCC(F)(F)F)C(C)C)c3)c2c1 [Example 3-7, N-(2-methylpropyl)-3-[5-({(1R)-2-methyl-1-[(2,2,2-trifluoroethyl)carbamoyl]propyl}amino)pyridin-3-yl]-1H-pyrrolo[2,3-b]pyridine-5-carboxamide]
≤ 10 nM | 10 to 500 nM | CNC(=O)c1cnc2[nH]cc(-c3cncc(N[C@@H](C(=O)NCC(F)(F)F)C(C)C)c3)c2c1 [Example 3-8, N-methyl-3-[5-({(1R)-2-methyl-1-[(2,2,2-trifluoroethyl)carbamoyl]propyl}amino)pyridin-3-yl]-1H-pyrrolo[2,3-b]pyridine-5-carboxamide]
≤ 10 nM | 10 to 500 nM | CC(C)[C@@H](Nc1cncc(-c2c[nH]c3ncc(C(=O)NCC4CCS(=O)(=O)C4)cc23)c1)C(=O)NCC(F)(F)F (stereo partly drawn) [Example 3-9, N-[(1,1-dioxidotetrahydrothiophen-3-yl)methyl]-3-[5-({(1R)-2-methyl-1-[(2,2,2-trifluoroethyl)carbamoyl]propyl}amino)pyridin-3-yl]-1H-pyrrolo[2,3-b]pyridine-5-carboxamide]
≤ 10 nM | 10 to 500 nM | CC(C)[C@@H](Nc1cncc(-c2c[nH]c3ncc(C(=O)NCc4ccn[nH]4)cc23)c1)C(=O)NCC(F)(F)F [Example 3-10, 3-[5-({(1R)-2-methyl-1-[(2,2,2-trifluoroethyl)carbamoyl]propyl}amino)pyridin-3-yl]-N-(1H-pyrazol-5-ylmethyl)-1H-pyrrolo[2,3-b]pyridine-5-carboxamide]
10 to 500 nM | > 500 nM | CC(C)[C@@H](Nc1cncc(-c2c[nH]c3ncc(C(=O)N(C)C(C)c4ccn[nH]4)cc23)c1)C(=O)NCC(F)(F)F (stereo partly drawn) [Example 3-11, N-methyl-3-[5-({(1R)-2-methyl-1-[(2,2,2-trifluoroethyl)carbamoyl]propyl}amino)pyridin-3-yl]-N-[1-(1H-pyrazol-5-yl)ethyl]-1H-pyrrolo[23-b]pyridine-5-carboxamide]
≤ 10 nM | ≤ 10 nM | CC(C)[C@@H](Nc1cncc(-c2c[nH]c3ncc(C(=O)NCc4cnn(C)c4)cc23)c1)C(=O)NCC(F)(F)F [Example 3-12, N-[(1-methyl-1H-pyrazol-4-yl)methyl]-3-[5-({(1R)-2-methyl-1-[(2,2,2-trifluoroethyl)carbamoyl]propyl}amino)pyridin-3-yl]-1H-pyrrolo[2,3-b]pyridine-5-carboxamide]
10 to 500 nM | > 500 nM | CC(C)[C@@H](Nc1cncc(-c2c[nH]c3ncc(C(=O)N4CCC(O)CC4)cc23)c1)C(=O)NCC(F)(F)F [Example 3-13, N~2~-(5-{5-[(4-hydroxypiperidin-1-yl)carbonyl]-1H-pyrrolo[2,3-b]pyridin-3-yl}pyridin-3-yl)-N-(2,2,2-trifluoroethyl)-D-valinamide]
≤ 10 nM | ≤ 10 nM | CC(C)[C@@H](Nc1cncc(-c2c[nH]c3ncc(C(=O)NCC4(O)CC4)cc23)c1)C(=O)NCC(F)(F)F [Example 3-14, N-[(1-hydroxycyclopropyl)methyl]-3-[5-({(1R)-2-methyl-1-[(2,2,2-trifluoroethyl)carbamoyl]propyl}amino)pyridin-3-yl]-1H-pyrrolo[2,3-b]pyridine-5-carboxamide]
≤ 10 nM | 10 to 500 nM | CC(C)C(Nc1cncc(-c2c[nH]c3ncc(S(N)(=O)=O)cc23)c1)C(=O)NCC(F)(F)F (stereo not shown) [Example 4-1, 3-Methyl-2-(5-(5-sulfamoyl-1H-pyrrolo[2,3-b]pyridin-3-yl)pyridin-3-ylamino)-N-(2,2,2-trifluoroethyl)butanamide]
10 to 500 nM | > 500 nM | CC(C)C(Nc1cncc(-c2c[nH]c3ncc(S(=O)(=O)N(C)C)cc23)c1)C(=O)NCC(F)(F)F (stereo not shown) [Example 4-2, 2-(5-(5-(N,N-dimethylsulfamoyl)-1H-pyrrolo[2,3-b]pyridin-3-yl)pyridin-3-ylamino)-3-methyl-N-(2,2,2-trifluoroethyl)butanamide]
10 to 500 nM | 10 to 500 nM | CC(C)[C@H](Nc1cncc(-c2c[nH]c3ncc(N)cc23)c1)C(=O)NCC(F)(F)F [Example 5-1, N^2-[5-(5-amino-1H-pyrrolo[2,3-b]pyridin-3-yl)pyridin-3-yl]-N-(2,2,2-trifluoroethyl)valinamide]
≤ 10 nM | 10 to 500 nM | CC(=O)Nc1cnc2[nH]cc(-c3cncc(N[C@H](C(=O)NCC(F)(F)F)C(C)C)c3)c2c1 [Example 5-2, N^2-{5-[5-(acetylamino)-1H-pyrrolo[2,3-b]pyridin-3-yl]pyridin-3-yl}-N-(2,2,2-trifluoroethyl)valinamide]
10 to 500 nM | > 500 nM | CC(C)[C@H](Nc1cncc(-c2c[nH]c3ncc(NS(C)(=O)=O)cc23)c1)C(=O)NCC(F)(F)F [Example 5-4, N^2-(5-{5-[(methylsulfonyl)amino]-1H-pyrrolo[2,3-b]pyridin-3-yl}pyridin-3-yl)-N-(2,2,2-trifluoroethyl)-L-valinamide]
10 to 500 nM | 10 to 500 nM | CC(C)[C@@H](Nc1cncc(-c2c[nH]c3ncc(NS(C)(=O)=O)cc23)c1)C(=O)NCC(F)(F)F [Example 5-5, N^2-(5-{5-[(methylsulfonyl)amino]-1H-pyrrolo[2,3-b]pyridin-3-yl}pyridin-3-yl)-N-(2,2,2-trifluoroethyl)-D-valinamide]
≤ 10 nM | 10 to 500 nM | CCC(=O)Nc1cnc2[nH]cc(-c3cncc(NC(C(=O)NCC(F)(F)F)C(C)C)c3)c2c1 (stereo not shown) [Example 5-6, N^2-{5-[5-(propanoylamino)-1H-pyrrolo[2,3-b]pyridin-7-ium-3-yl]pyridin-3-yl}-N-(2,2,2-trifluoroethyl)valinamide]
≤ 10 nM | 10 to 500 nM | CC(C)[C@H](Nc1cncc(-c2c[nH]c3ncc(NC(=O)CO)cc23)c1)C(=O)NCC(F)(F)F [Example 5-7, N~2~-(5-{5-[(hydroxyacetyl)amino]-1H-pyrrolo[2,3-b]pyridin-3-yl}pyridin-3-yl)-N-(2,2,2-trifluoroethyl)valinamide]
≤ 10 nM | 10 to 500 nM | COCC(=O)Nc1cnc2[nH]cc(-c3cncc(N[C@H](C(=O)NCC(F)(F)F)C(C)C)c3)c2c1 [Example 5-8, N~2~-(5-{5-[(methoxyacetyl)amino]-1H-pyrrolo[2,3-b]pyridin-3-yl}pyridin-3-yl)-N-(2,2,2-trifluoroethyl)valinamide]
≤ 10 nM | 10 to 500 nM | CC(C)NC(=O)Nc1cnc2[nH]cc(-c3cncc(N[C@H](C(=O)NCC(F)(F)F)C(C)C)c3)c2c1 [Example 6-1, N^2-(5-{5-[(propan-2-ylcarbamoyl)amino]-1H-pyrrolo[2,3-b]pyridin-3-yl}pyridin-3-yl)-N-(2,2,2-trifluoroethyl)valinamide]
≤ 10 nM | 10 to 500 nM | CCCNC(=O)Nc1cnc2[nH]cc(-c3cncc(NC(C(=O)NCC(F)(F)F)C(C)C)c3)c2c1 (stereo not shown) [Example 6-2, N~2~-(5-{5-[(propylcarbamoyl)amino]-1H-pyrrolo[2,3-b]pylidin-3-yl}pyridin-3-yl)-N-(2,2,2-trifluoroethyl)valinamide]
≤ 10 nM | 10 to 500 nM | CC(C)[C@H](Nc1cncc(-c2c[nH]c3ncc(NC(=O)Nc4ccc(F)cc4F)cc23)c1)C(=O)NCC(F)(F)F [Example 6-3, N~2~-[5-(5-{[(2,4-difluorophenyl)carbamoyl]amino}-1H-pyrrolo[2,3-b]pyridin-3-yl)pyridin-3-yl]-N-(2,2,2-trifluoroethyl)valinamide]
≤ 10 nM | 10 to 500 nM | CC(C)C(Nc1cncc(-c2c[nH]c3ncc(NC(=O)N[C@@H](C)C(=O)O)cc23)c1)C(=O)NCC(F)(F)F (stereo partly shown) [Example 6-4, N-({3-[5-({2-methyl-1-[(2,2,2-trifluoroethyl)carbamoyl]propyl}amino)pyridin-3-yl]-1H-pyrrolo[2,3-b]pyridin-5-yl}carbamoyl)alanine]
≤ 10 nM | 10 to 500 nM | CNC(=O)Nc1cnc2[nH]cc(-c3cncc(N[C@H](C(=O)NCC(F)(F)F)C(C)C)c3)c2c1 [Example 6-5, N~2~-(5-{5-[(methylcarbamoyl)amino]-1H-pyrrolo[2,3-b]pyridin-3-yl}pyridin-3-yl)-N-(2,2,2-trifluoroethyl)valinamide]
10 to 500 nM | 10 to 500 nM | COC(=O)Nc1cnc2[nH]cc(-c3cncc(NC(C(=O)NCC(F)(F)F)C(C)C)c3)c2c1 (stereo not shown) [Example 7-1, Methyl {3-[5-({3-methyl-1-oxo-1-[(2,2,2-trifluoroethyl)amino]butan-2-yl}amino)pyridin-3-yl]-1H-pyrrolo[2,3-b]pyridin-5-yl}carbamate]
